Patent publication US10111890B2, “9-aminomethyl minocycline compounds and uses thereof” (Paratek Pharmaceuticals, Inc., priority 2016, dated 2018)
Read-outs that look alike come from different tables or passages of the source.

Columns and labels:
[1] = Phase 1 food-effect crossover study: plasma PK after single 300 mg oral dose; type: in vivo, human; conditions: for AUC(0-inf) / AUC(0-t) / Cmax / Tmax: plasma, po, 300 mg
Description: These meals were to be consumed within 20 minutes. Dose administration for Treatments B, C, and D was based off of the end time of the meal. […] Geometric means were determined for AUC and Cmax. PK parameters were evaluated using non-compartmental analysis using Phoenix® WinNonlin® (Pharsight Corp, St. Louis, Mo.), Version 6.2.1. Confidence intervals (CI) for test treatments (fed states: Treatments B, C, and D) compared with the reference treatment (fasted state: Treatment A) were constructed for AUC0-24, AUC0-t, AUC0-inf, and Cmax.

[2] = Phase 1 food-effect study: safety and tolerability; type: in vivo, human
Description: Safety and tolerability was assessed by: Adverse events (AEs); vital sign measurements at multiple time-points within 24 hours post-dose in each treatment period; and clinical laboratory tests 24 hours post-dose in each treatment period.

[3] = Phase 1 multiple oral dose study: safety and tolerability (TEAEs, serum chemistry)
[4] = single 300 mg oral dose, healthy subjects
[5] = 600 mg (n = 24), listed as omadacycline
[6] = 300, 450, 600 mg once daily x 5 days

CN(C)c1cc(CNCC(C)(C)C)c(O)c2c1C[C@H]1C[C@H]3[C@H](N(C)C)C(O)=C(C(N)=O)C(=O)[C@@]3(O)C(O)=C1C2=O [Omadacycline, 9-[(2,2-dimethyl-propylamino)-methyl]-minocycline]
AUC0-24, Mean (Coefficient of Variation) ([1]; Treatment A: fasted overnight): 7.2 (28.1) mcg * h/mL
AUC0-t, Mean (Coefficient of Variation) ([1]; Treatment A: fasted overnight): 7.2 (28.1) mcg * h/mL
half-life ([1]; human, in vivo, across all treatment periods, read-out: mean T1/2): 13.5 to 13.8 h
AUC(0-inf) ([1]; human, Treatment A: fasted overnight (N = 30), read-out: AUC0-inf, Geometric LS Mean): 10600 ng·h/mL
AUC(0-t) ([1]; human, Treatment A: fasted overnight, read-out: AUC0-24, Geometric LS Mean): 7400 ng·h/mL
AUC(0-t) ([1]; human, Treatment A: fasted overnight, read-out: AUC0-24, Mean (Coefficient of Variation)): 7200 ng·h/mL
AUC(0-inf) ([1]; human, Treatment A: fasted overnight, read-out: AUC0-inf, Mean (Coefficient of Variation)): 10200 ng·h/mL
AUC(0-t) ([1]; human, Treatment A: fasted overnight, read-out: AUC0-t, Geometric LS Mean): 7400 ng·h/mL
AUC(0-t) ([1]; human, Treatment A: fasted overnight, read-out: AUC0-t, Mean (Coefficient of Variation)): 7200 ng·h/mL
Cmax ([1]; human, Treatment A: fasted overnight, read-out: Cmax, Geometric LS Mean): 660 ng/mL
Cmax ([1]; human, Treatment A: fasted overnight, read-out: Cmax, Mean (Coefficient of Variation)): 600 ng/mL
Tmax ([1]; human, Treatment A: fasted overnight, read-out: Tmax): 2.5 h
AUC(0-t) ([1]; human, Treatment B: high-fat nondairy meal 4 h before dosing, read-out: AUC0-24, Geometric LS Mean): 6200 ng·h/mL
AUC(0-t) ([1]; human, Treatment B: high-fat nondairy meal 4 h before dosing, read-out: AUC0-24, Mean (Coefficient of Variation)): 6100 ng·h/mL
AUC(0-inf) ([1]; human, Treatment B: high-fat nondairy meal 4 h before dosing, read-out: AUC0-inf, Geometric LS Mean): 9000 ng·h/mL
AUC(0-inf) ([1]; human, Treatment B: high-fat nondairy meal 4 h before dosing, read-out: AUC0-inf, Mean (Coefficient of Variation)): 8800 ng·h/mL
AUC(0-t) ([1]; human, Treatment B: high-fat nondairy meal 4 h before dosing, read-out: AUC0-t, Geometric LS Mean): 6200 ng·h/mL
AUC(0-t) ([1]; human, Treatment B: high-fat nondairy meal 4 h before dosing, read-out: AUC0-t, Mean (Coefficient of Variation)): 6100 ng·h/mL
Cmax ([1]; human, Treatment B: high-fat nondairy meal 4 h before dosing, read-out: Cmax, Geometric LS Mean): 560 ng/mL
Cmax ([1]; human, Treatment B: high-fat nondairy meal 4 h before dosing, read-out: Cmax, Mean (Coefficient of Variation)): 600 ng/mL
Tmax ([1]; human, Treatment B: high-fat nondairy meal 4 h before dosing, read-out: Tmax): 2.9 h
AUC(0-t) ([1]; human, Treatment C: high-fat nondairy meal 2 h before dosing, read-out: AUC0-24, Geometric LS Mean): 4300 ng·h/mL
AUC(0-t) ([1]; human, Treatment C: high-fat nondairy meal 2 h before dosing, read-out: AUC0-24, Mean (Coefficient of Variation)): 4200 ng·h/mL
AUC(0-inf) ([1]; human, Treatment C: high-fat nondairy meal 2 h before dosing, read-out: AUC0-inf, Geometric LS Mean): 6200 ng·h/mL
AUC(0-inf) ([1]; human, Treatment C: high-fat nondairy meal 2 h before dosing, read-out: AUC0-inf, Mean (Coefficient of Variation)): 6000 ng·h/mL
AUC(0-t) ([1]; human, Treatment C: high-fat nondairy meal 2 h before dosing, read-out: AUC0-t, Geometric LS Mean): 4300 ng·h/mL
AUC(0-t) ([1]; human, Treatment C: high-fat nondairy meal 2 h before dosing, read-out: AUC0-t, Mean (Coefficient of Variation)): 4200 ng·h/mL
Cmax ([1]; human, Treatment C: high-fat nondairy meal 2 h before dosing, read-out: Cmax, Geometric LS Mean): 390 ng/mL
Cmax ([1]; human, Treatment C: high-fat nondairy meal 2 h before dosing, read-out: Cmax, Mean (Coefficient of Variation)): 400 ng/mL
Tmax ([1]; human, Treatment C: high-fat nondairy meal 2 h before dosing, read-out: Tmax): 2.9 h
AUC(0-t) ([1]; human, Treatment D: high-fat meal incl. dairy 2 h before dosing, read-out: AUC0-24, Geometric LS Mean): 2800 ng·h/mL
AUC(0-t) ([1]; human, Treatment D: high-fat meal incl. dairy 2 h before dosing, read-out: AUC0-24, Mean (Coefficient of Variation)): 2800 ng·h/mL
AUC(0-inf) ([1]; human, Treatment D: high-fat meal incl. dairy 2 h before dosing, read-out: AUC0-inf, Geometric LS Mean): 4000 ng·h/mL
AUC(0-inf) ([1]; human, Treatment D: high-fat meal incl. dairy 2 h before dosing, read-out: AUC0-inf, Mean (Coefficient of Variation)): 4000 ng·h/mL
AUC(0-t) ([1]; human, Treatment D: high-fat meal incl. dairy 2 h before dosing, read-out: AUC0-t, Geometric LS Mean): 2800 ng·h/mL
AUC(0-t) ([1]; human, Treatment D: high-fat meal incl. dairy 2 h before dosing, read-out: AUC0-t, Mean (Coefficient of Variation)): 2800 ng·h/mL
Cmax ([1]; human, Treatment D: high-fat meal incl. dairy 2 h before dosing, read-out: Cmax, Geometric LS Mean): 270 ng/mL
Cmax ([1]; human, Treatment D: high-fat meal incl. dairy 2 h before dosing, read-out: Cmax, Mean (Coefficient of Variation)): 300 ng/mL
Tmax ([1]; human, Treatment D: high-fat meal incl. dairy 2 h before dosing, read-out: Tmax): 2.9 h
Tmax ([1]; human, across all treatment periods, read-out: median Tmax): 2.5 to 2.9 h
serious AE (SAE) [2, 4]: no subject experienced a serious AE
treatment-related adverse events, clinically relevant changes in laboratory values or vital signs [2, 4]: No treatment-related adverse events or clinically relevant changes in laboratory values, or vital signs occurred
median change from baseline in heart rate ([2]; single 300 mg oral dose, all other treatment groups, all measured time points): ≤ 3 bpm
tolerability ([2]; single oral dose (300 mg), healthy subjects): well tolerated
Any TEAE, % of subjects ([3]; 300 mg (n = 26)): (19.2) %
Any TEAE, n of subjects ([3]; 300 mg (n = 26)): 5 n
Most frequent TEAEs: Dizziness, % ([3]; 300 mg (n = 26)): (7.7) %
Most frequent TEAEs: Nausea, % ([3]; 300 mg (n = 26)): (7.7) %
Most frequent TEAEs: Vomiting, % ([3]; 300 mg (n = 26)): (7.7) %
TEAEs leading to early discontinuation of study drug: All, % ([3]; 300 mg (n = 26)): (3.8) %
TEAEs leading to early discontinuation of study drug: Nausea, % ([3]; 300 mg (n = 26)): (3.8) %
TEAEs leading to early discontinuation of study drug: Vomiting, % ([3]; 300 mg (n = 26)): (3.8) %
Treatment-related TEAE, % of subjects ([3]; 300 mg (n = 26)): (15.4) %
Treatment-related TEAE, n of subjects ([3]; 300 mg (n = 26)): 4 n
Treatment-related TEAE, % of subjects ([3]; 300 mg (n = 26), listed as omadacycline): 15.4%
median change in alanine aminotransferase (ALT) concentration between baseline and Day 5 ([3]; 300 mg omadacycline): −2.0 IU/L
Any TEAE, % of subjects ([3]; 450 mg (n = 24)): (12.5) %
Any TEAE, n of subjects ([3]; 450 mg (n = 24)): 3 n
Most frequent TEAEs: ALT increased, % ([3]; 450 mg (n = 24)): (4.2) %
Most frequent TEAEs: Nausea, % ([3]; 450 mg (n = 24)): (4.2) %
TEAEs leading to early discontinuation of study drug: ALT increased, % ([3]; 450 mg (n = 24)): (4.2) %
TEAEs leading to early discontinuation of study drug: All, % ([3]; 450 mg (n = 24)): (4.2) %
Treatment-related TEAE, % of subjects ([3]; 450 mg (n = 24)): (8.3) %
Treatment-related TEAE, n of subjects ([3]; 450 mg (n = 24)): 2 n
Treatment-related TEAE, % of subjects ([3]; 450 mg (n = 24), listed as omadacycline): 8.3%
median change in alanine aminotransferase (ALT) concentration between baseline and Day 5 ([3]; 450 mg omadacycline): 5.0 IU/L
Any TEAE, % of subjects ([3]; 600 mg (n = 24)): (25.0) %
Any TEAE, n of subjects ([3]; 600 mg (n = 24)): 6 n
Most frequent TEAEs: ALT increased, % ([3]; 600 mg (n = 24)): (4.2) %
Most frequent TEAEs: Diarrhea, % ([3]; 600 mg (n = 24)): (8.3) %
Most frequent TEAEs: Dizziness, % ([3]; 600 mg (n = 24)): (4.2) %
Most frequent TEAEs: Nausea, % ([3]; 600 mg (n = 24)): (16.7) %
Most frequent TEAEs: Vomiting, % ([3]; 600 mg (n = 24)): (4.2) %
TEAEs leading to early discontinuation of study drug: All, % ([3]; 600 mg (n = 24)): (4.2) %
TEAEs leading to early discontinuation of study drug: Lipase increased, % ([3]; 600 mg (n = 24)): (4.2) %
Treatment-related TEAE, % of subjects ([3]; 600 mg (n = 24)): (25.0) %
Treatment-related TEAE, n of subjects ([3]; 600 mg (n = 24)): 6 n
Most frequent TEAEs: Nausea, % [3, 5]: 16.7%
Treatment-related TEAE, % of subjects [3, 5]: 25.0%
median change in alanine aminotransferase (ALT) concentration between baseline and Day 5 ([3]; 600 mg omadacycline): 19.5 IU/L
serious TEAEs (SAEs) [3, 6]: no serious TEAEs (SAEs) reported
severity of TEAEs [3, 6]: either mild or moderate in severity
Any TEAE, % of subjects ([3]; Omadacycline Overall (n = 26)): (38.5) %
Any TEAE, n of subjects ([3]; Omadacycline Overall (n = 26)): 10 n
Most frequent TEAEs: ALT increased, % ([3]; Omadacycline Overall (n = 26)): (7.7) %
Most frequent TEAEs: Diarrhea, % ([3]; Omadacycline Overall (n = 26)): (7.7) %
Most frequent TEAEs: Dizziness, % ([3]; Omadacycline Overall (n = 26)): (11.5) %
Most frequent TEAEs: Nausea, % ([3]; Omadacycline Overall (n = 26)): (23.1) %
Most frequent TEAEs: Vomiting, % ([3]; Omadacycline Overall (n = 26)): (11.5) %
TEAEs leading to early discontinuation of study drug: ALT increased, % ([3]; Omadacycline Overall (n = 26)): (3.8) %
TEAEs leading to early discontinuation of study drug: All, % ([3]; Omadacycline Overall (n = 26)): (11.5) %
TEAEs leading to early discontinuation of study drug: Lipase increased, % ([3]; Omadacycline Overall (n = 26)): (3.8) %
TEAEs leading to early discontinuation of study drug: Nausea, % ([3]; Omadacycline Overall (n = 26)): (3.8) %
TEAEs leading to early discontinuation of study drug: Vomiting, % ([3]; Omadacycline Overall (n = 26)): (3.8) %
Treatment-related TEAE, % of subjects ([3]; Omadacycline Overall (n = 26)): (34.6) %
Treatment-related TEAE, n of subjects ([3]; Omadacycline Overall (n = 26)): 9 n
Any TEAE, % of subjects ([3]; Omadacycline Overall (n = 26), listed as omadacycline): 38.5%
nausea, % of subjects ([3]; omadacycline 300 and 450 mg dose groups): ≤ 7.7%
highest individual ALT value ([3]; subject who received 450 mg in Period 1 then 300 mg in Period 2): 150 IU/L
